{"source": "patent US20240352466A1", "about": "“APTAMER-siRNA FUSIONS” (APTERNA LIMITED, priority 2020, published 2024)", "molecules": {"B1": {"name": "TfR-SS-saCEBPA: TfR aptamer SEQ ID NO:1 linked through a disulphide linker (SS) to saCEBPa (SEQ ID NO:38+49, 39) (nucleic acid)", "chain 1": "UUUAUUCACAUUUUUGAAUUGA", "chain 2": "UUUAUUCACAUUUUUGAAUUGA", "chain 3": "GACCAGUGACAAUGACCGCUU", "chain 4": "GCGGUCAUUGUCACUGGUCUU", "modifications": "TfR aptamer attached via disulphide linker, further chemistry not given here"}}, "key": {"CEBPB mRNA [1]": {"system": "CEBPB mRNA", "test": "CEBPB mRNA transcripts (qPCR) in BNL-ME mouse cells transfected with naked and ESC siRNAs", "assay_type": "cell-based", "conditions": "1, 5 and 10 nM + L3K, lysed after 48 hrs, vs untreated cells", "method": "The activity of naked and ESC siRNAs was investigated in mouse BNL hepatocyte cells.\nBNL-ME mouse cells were seeded at a density of approximately 20,000 cells per well. The following siRNAs were tested: (m) siCEBPB (Ambion) (SEQ ID NOs: 11, 51 and 12, 52), (m) siCEBPB (Ambs63860) (ESC) (SEQ ID NOs: 17, 18), (h/m) siCEBPB (SEQ ID NOs: 7 and 8), (h/m) siCEBPB ESC (SEQ ID NOs: 15 and 16), (h) siCEBPB (AP6143-6145) (SEQ ID NOs: 9 and 10), (r) siCEBPB (Hao) (SEQ ID NOs: 13 and 14). Test siRNAs were transfected at concentrations of 1, 5 and 10 nM in the presence of Lipofectamine™ 3000 (L3K). Control treatments (untreated, mock L3K treatment, and siFLUC at 1, 5 and 10 nM) were also performed. The media was changed 24 hours following transfection, and cells lysed after 48 hrs. CEBPB mRNA transcript were quantified through qPCR."}, "PANC-Luc cells": {"system": "PANC-Luc cells", "test": "TfR-siCEBPb in mouse model of pancreatic cancer with liver metastasis", "assay_type": "in vivo", "conditions": "NOD/SCID mice, 15 mg/kg subcutaneous; for increase in photon count (BTL) relative to PBS and TfR-Fluc controls: after 3 weeks", "method": "The anti-tumour effects of TfR-siCEBPb was investigated in a mouse model of pancreatic cancer with liver metastasis\nTreatment group 1 was administered PBS as a negative control. Treatment group 2 was a TfR-siFLUC construct (SEQ ID NO:32, conjugated to SEQ ID NO:1), as described previously. Treatment groups 3 and 4 was administered ESC modified siCEBPb sequences from Example 4 linked to TfR aptamer SEQ ID NO: 40, an ESC-modified version of the TfR aptamer laid out in SEQ ID NO:1, via a disulphide bridge as described previously. Group 3 is treated with a ribonucleic acid comprising the human-mouse cross reactive siCEBPb described previously, whilst Group 4 is treated with a ribonucleic acid comprising a mouse siCEBPb. These ribonucleic acids correspond to TFR-SS-siCEBPb seq 1 (SEQ ID NO: 41+50) and TfR-SS-siCEBPb seq 2 (SEQ ID NO:34 and 47) respectively.\nEach group consisted of five 6-week-old NOD/SCID mice. Three additional mice were included for baseline.\nFourteen days prior to the first dose, mice underwent tumour challenge by performing intrahepatic tumor implantation by injecting […] of a monocellular suspension (in PBS) containing 1×10^6 PANC-Luc cells into a region in the middle lobe of the livers of 6-week-old female NOD/SCID. The day prior to the first dose, mice underwent bioluminescence tumour imaging (BTL) and were weighed to set the week 0 baseline.\nDoses were administered as a 100 μL injection on injection days as outlined in Table 2.\nAt day 21 (week 3), BTL and body weight were recorded, and blood samples were taken, along with pathological sections of pancreas, tumour and liver for study and cryopreservation. The schema of the experiments is shown as FIG. 6."}, "[2]": {"system": "pancreatic cancer with liver metastasis", "test": "Combination of TfR-siCEBPb with PD-1 inhibitor pembrolizumab in mouse model of pancreatic cancer with liver metastasis", "assay_type": "in vivo", "excerpt": "The combinatorial anti-tumour effects of TfR-siCEBPb and PD-1 inhibitor pembrolizumab were investigated in the mouse model of pancreatic cancer with liver metastasis. The TfR-siCEBPb (ESC) and TfR-siFLUC sequences from Example 5 were used in this study.\nThe treatment groups were as follows:\nFourteen days prior to the first dose, mice underwent tumour challenge. The day prior to, and 21 days following the first dose, mice underwent bioluminescence tumour imaging (BTL)."}, "CEBPB mRNA [3]": {"system": "CEBPB mRNA", "test": "CEBPB mRNA expression in primary mouse hepatocytes exposed to TfR-SS-(h/m) siCEBPb", "assay_type": "cell-based", "excerpt": "The human siCEBPbeta sequence was aligned with chromosome 3 of the mouse genome (Accession NC_0344592.1), in which the CEBPbeta gene is located, using Basic Local Alignment Search Tool (BLAST, https://blast.ncbi.nlm.nih.gov). […] To make a human/mouse cross-reactive siRNA, this sequence was substituted in the sense (G to A) and antisense (C to U) strands. The sense and antisense strands of this human/mouse crossreactive (h/m) siCEBPb correspond to SEQ ID NOs: 15 and 16 respectively. TfR-SS-MALATI siRNA was included as an siRNA effector control.\nPrimary mouse hepatocytes were exposed to TfR-SS-MALATI (100 nM, 500 nM and 1000 nM) or TfR-SS-(h/m) siCEBPb (100 nM, 500 nM and 1000 nM), or were untreated, and the effects on CEBPB mRNA expression determined as outlined previously."}, "CEBPA": {"system": "CEBPA", "test": "qRT-PCR of CEBPA gene expression in PANC-1, Sup-B15 and CCFR-CEM cell lines", "assay_type": "cell-based, human", "conditions": "PANC-1, Sup-B15 and CCFR-CEM cells; 400 nM and 800 nM; normalized to GAPDH", "method": "(§1) In order to evaluate the effects of TfR aptamer-small RNAs, experiments were performed in PANC-1, Sup-B15 and CCFR-CEM cell lines.\n(§2) The TfR-SS-siCEBPB construct as described in Example 1 was selected for these experiments. A TfR aptamer (SEQ ID NO:1) fused via a disulphide bridge (SS) to siRNA for MALATI (TfR-MALATI siR) was generated as a negative control for siCEBPB activity. The siCEBPB (SEQ ID NO:9) without a TfR aptamer delivery system was also included for comparative purposes.\n(§3) Cells were seeded in plates on Day 0, and the first transfection of TfR aptamer-small RNAs was performed on day 1. The second transfection of TfR aptamer-small RNAs was performed on day 2. Sampling was performed on day 3. Total RNA extraction was performed on samples prior to qRT-PCR quantification of GAPDH, CEBPA, CEBPB, and p21 gene expression. Expression was normalized to GAPDH.\n(§4) Transfections were performed at 400 nM and 800 nM concentrations."}, "p21": {"system": "p21", "test": "qRT-PCR of p21 gene expression in PANC-1, Sup-B15 and CCFR-CEM cell lines", "assay_type": "cell-based, human", "conditions": "PANC-1, Sup-B15 and CCFR-CEM cells; 400 nM and 800 nM; normalized to GAPDH", "method": "as §1, §2, §3, §4"}, "CEBPB": {"system": "CEBPB", "test": "qRT-PCR of CEBPB gene expression in PANC-1, Sup-B15 and CCFR-CEM cell lines", "assay_type": "cell-based, human", "conditions": "PANC-1, Sup-B15 and CCFR-CEM cells; 400 nM and 800 nM; normalized to GAPDH", "method": "as §1, §2, §3, §4"}, "CEBPA mRNA": {"system": "CEBPA mRNA", "test": "CEBPA mRNA levels in Panc1 cells after TfR aptamer-saCEBPA constructs, active (L2K) and passive delivery", "assay_type": "cell-based, human", "conditions": "for CEBPA mRNA levels: passive delivery", "excerpt": "In order to test whether cleavable […] bridge (SS) linkers improved TfR aptamer delivery of small RNA, a series of constructs were made by fusing the 22nt TfR binding aptamer (SEQ ID NO:1) to: i. a CEBPalpha small activating RNA (saCEBPa, SEQ ID NO:24) ii. CEBPbeta small interfering RNA (siCEBPb, SEQ ID NO:9), or iii. siTTR (SEQ ID NO:28).\nFor the saCEBPa and […] constructs, variants were produced where the aptamer and small RNAs were linked through a disulphide linker (SS).\nIn order to compare the effects of the SS linker on active and passive delivery, constructs were applied to cells in the presence and absence of transfection agent Lipofectamine™ 2000 (L2K, ThermoFisher Scientific).\nThe effects of the constructs on CEBPA and B mRNA were measured in Panc1 (human pancreatic cancer cell line) cells. Cells were seeded at a density of approximately 50,000 per well in a 24 well plate, in antibiotic free media with no trypsin (Accutase®). Constructs were applied to cells at 10, 500 or 1000 nM concentration, and mRNA levels measured after incubation for 72 hrs."}}, "note": "In the oligonucleotide strings, read from the 5' end, every base follows the letter of its sugar. An asterisk marks phosphorothioate; unmarked linkages are phosphodiester. Other units and linkages are bracketed, terminal groups are in braces. A string of capitals states the bases alone. m = 2'-O-methyl; f = 2'-fluoro"}
{"molecule": "(h/m) siCEBPB: human/mouse cross reactive naked CEBPB siRNA (AP6143), SEQ ID NOs: 7 and 8 (chain 1 CUGAGUAAUCACUUAAAGAUU; chain 2 UCUUUAAGUGAUUACUCAGUU; unmodified RNA)", "values": [{"measurement": "CEBPB mRNA expression", "setting": "CEBPB mRNA [1]", "value": "below half that of the untreated cells"}]}
{"molecule": "TfR-SS-(h/m) siCEBPb ESC seq 2: ESC modified human-mouse cross reactive siCEBPb linked to TfR aptamer SEQ ID NO:40 via a disulphide bridge (SEQ ID NO: 34 and 47) (chain 1 UUUAUUCACAUUUUUGAAUUGA; chain 2 CUGAGUAAUCGCUUAAAGAUU; chain 1: 2'-fluoro at CU, RNA at AG, backbone not given here; chain 2: chemistry not given here; further chemistry not fully specified)", "values": [{"measurement": "body weight at 3 weeks relative to week 0", "setting": "PANC-Luc cells", "value": "body weight gain"}, {"measurement": "increase in photon count (BTL) relative to PBS and TfR-Fluc controls", "setting": "PANC-Luc cells", "value": "lower"}, {"measurement": "effects on IVIS, body weight, tumour volume and weight, seq 2 compared with seq-1", "setting": "PANC-Luc cells; week 3", "value": "more pronounced"}, {"measurement": "tumour burden relative to controls", "setting": "PANC-Luc cells; week 3", "value": "ability to reduce tumour burden"}, {"measurement": "tumour volume", "setting": "PANC-Luc cells; week 3", "value": "statistically significant lower"}, {"measurement": "tumour weight", "setting": "PANC-Luc cells; week 3", "value": "statistically significant lower"}, {"measurement": "effect on animal weight", "setting": "[2]; in combination with pembrolizumab", "value": "no effect on animal weight"}]}
{"molecule": "TfR-SS-(h/m) siCEBPb: TfR aptamer linked via SS to human/mouse crossreactive siCEBPb (SEQ ID NOs: 15 and 16) (chain 1 fCmUfGmAfGmUfAfAfUmCfAmCfUmUfAmAfAmGfA*mU*mU; chain 2 mU*fCmU*fUmUfAmAfGmUfGmAmUmUfAmCfUmCfAmG*mU*mU; TfR aptamer attached via disulphide linker, attachment site not given here)", "values": [{"measurement": "relative CEBPB mRNA expression", "setting": "CEBPB mRNA [3]; 100 nM", "value": "reduced slightly"}, {"measurement": "relative CEBPB mRNA expression", "setting": "CEBPB mRNA [3]; 500 nM", "value": "strongest effect"}, {"measurement": "relative CEBPB mRNA expression", "setting": "CEBPB mRNA [3]; 1000 nM", "value": "more pronounced"}]}
{"molecule": "TfR-SS-(m) siCEBPb ESC seq 1: ESC modified mouse siCEBPb linked to TfR aptamer SEQ ID NO:40 via a disulphide bridge (SEQ ID NO: 41+50) (chain 1 UUUAUUCACAUUUUUGAAUUGA; chain 2 GCACCCUGCGGAACUUGUUUU; ESC modified; disulphide linker; modified_base 1 OTHER; 2-Prime-fluoro uracil; modified_base 2 OTHER; modified_base 3 OTHER; modified_base 5 OTHER; modified_base 6 OTHER; modified_base 7 OTHER; 2-Prime-fluoro cytosine; modified_base 9 OTHER; modified_base 11 OTHER; modified_base 12 OTHER; 2-P; 2-Prime-fluoro guanine; 2-Prime-O-methyl cytosine; 2-Prime-fluoro adenine; modified_base 4 OTHER; mo)", "values": [{"measurement": "increase in photon count (BTL) relative to PBS and TfR-Fluc controls", "setting": "PANC-Luc cells", "value": "lower"}, {"measurement": "tumour burden relative to controls", "setting": "PANC-Luc cells; week 3", "value": "ability to reduce tumour burden"}, {"measurement": "tumour volume", "setting": "PANC-Luc cells; week 3", "value": "Slightly lower"}, {"measurement": "tumour weight", "setting": "PANC-Luc cells; week 3", "value": "Slightly lower"}]}
{"molecule": "pembrolizumab: PD-1 inhibitor pembrolizumab [reference compound]", "values": [{"measurement": "tumour volume compared to PBS-treated controls", "setting": "[2]; week 3, pembrolizumab 0.25 mg/kg, TfR constructs 10 mg/kg", "value": "smaller tumour volumes"}]}
{"molecule": "siCEBPbeta: human CEBPB siRNA (SEQ ID NOs: 9 and 10) without a TfR aptamer delivery system (chain 1 CUGAGUAAUCGCUUAAAGAUU; chain 2 UCUUUAAGCGAUUACUCAGUU; listed as RNA, chemistry not given here)", "values": [{"measurement": "C/EBPA gene expression", "setting": "CEBPA", "value": "no statistically significant change"}, {"measurement": "p21 gene expression", "setting": "p21", "value": "no statistically significant change"}, {"measurement": "CEBPbeta gene expression", "setting": "CEBPB", "value": "no statistically significant change"}]}
{"molecule": "B1", "values": [{"measurement": "relative expression of CEBPA mRNA", "setting": "CEBPA mRNA; 10 nM + L2K (active delivery), 72 hrs, vs untreated samples", "value": "within 1 standard deviation of untreated samples"}, {"measurement": "CEBPA mRNA levels", "setting": "CEBPA mRNA; 500 nM and 1000 nM, 72 hrs", "value": "lower"}, {"measurement": "CEBPA mRNA levels", "setting": "CEBPA mRNA; 1000 nM, vs control", "value": "within one standard deviation of the control"}]}
